Experimental data: ChEMBL document CHEMBL1201862, “PubChem BioAssay data set” (2004)
The source made the active and inactive calls.

Experiments:
[1] = T. cruzi growth inhibition in host cells, dose response, cell-based, plate reader, dry powder, set 2 (AID 652275); assay type: functional
[2] = T. cruzi intracellular amastigote growth inhibition, dose response, imaging, CA-I/72 strain, bovine embryo skeletal muscle, dry powder (AID 651885); assay type: functional, cell-based
[3] = growth inhibition of intracellular T. cruzi, dose response, cell-based, plate reader, dry powder samples (AID 651845); assay type: functional
[4] = target: 1-phosphatidylinositol 4,5-bisphosphate phosphodiesterase beta-3 (Homo sapiens, UniProt Q01970); test: Fluorescence-based biochemical high throughput dose response assay to identify inhibitors of phospholipase C isozymes (PLC-B3).
[5] = target: 1-phosphatidylinositol 4,5-bisphosphate phosphodiesterase gamma-1 (Homo sapiens, UniProt P19174); test: Counterscreen for inhibitors of phospholipase C isozymes (PLC-B3): Fluorescence-based biochemical high throughput dose response assay to identify inhibitors of phospholipase C isozymes (PLC-gamma1).
Chain of 1-phosphatidylinositol 4,5-bisphosphate phosphodiesterase gamma-1 (P19174 whole entry, the tested form may be a part): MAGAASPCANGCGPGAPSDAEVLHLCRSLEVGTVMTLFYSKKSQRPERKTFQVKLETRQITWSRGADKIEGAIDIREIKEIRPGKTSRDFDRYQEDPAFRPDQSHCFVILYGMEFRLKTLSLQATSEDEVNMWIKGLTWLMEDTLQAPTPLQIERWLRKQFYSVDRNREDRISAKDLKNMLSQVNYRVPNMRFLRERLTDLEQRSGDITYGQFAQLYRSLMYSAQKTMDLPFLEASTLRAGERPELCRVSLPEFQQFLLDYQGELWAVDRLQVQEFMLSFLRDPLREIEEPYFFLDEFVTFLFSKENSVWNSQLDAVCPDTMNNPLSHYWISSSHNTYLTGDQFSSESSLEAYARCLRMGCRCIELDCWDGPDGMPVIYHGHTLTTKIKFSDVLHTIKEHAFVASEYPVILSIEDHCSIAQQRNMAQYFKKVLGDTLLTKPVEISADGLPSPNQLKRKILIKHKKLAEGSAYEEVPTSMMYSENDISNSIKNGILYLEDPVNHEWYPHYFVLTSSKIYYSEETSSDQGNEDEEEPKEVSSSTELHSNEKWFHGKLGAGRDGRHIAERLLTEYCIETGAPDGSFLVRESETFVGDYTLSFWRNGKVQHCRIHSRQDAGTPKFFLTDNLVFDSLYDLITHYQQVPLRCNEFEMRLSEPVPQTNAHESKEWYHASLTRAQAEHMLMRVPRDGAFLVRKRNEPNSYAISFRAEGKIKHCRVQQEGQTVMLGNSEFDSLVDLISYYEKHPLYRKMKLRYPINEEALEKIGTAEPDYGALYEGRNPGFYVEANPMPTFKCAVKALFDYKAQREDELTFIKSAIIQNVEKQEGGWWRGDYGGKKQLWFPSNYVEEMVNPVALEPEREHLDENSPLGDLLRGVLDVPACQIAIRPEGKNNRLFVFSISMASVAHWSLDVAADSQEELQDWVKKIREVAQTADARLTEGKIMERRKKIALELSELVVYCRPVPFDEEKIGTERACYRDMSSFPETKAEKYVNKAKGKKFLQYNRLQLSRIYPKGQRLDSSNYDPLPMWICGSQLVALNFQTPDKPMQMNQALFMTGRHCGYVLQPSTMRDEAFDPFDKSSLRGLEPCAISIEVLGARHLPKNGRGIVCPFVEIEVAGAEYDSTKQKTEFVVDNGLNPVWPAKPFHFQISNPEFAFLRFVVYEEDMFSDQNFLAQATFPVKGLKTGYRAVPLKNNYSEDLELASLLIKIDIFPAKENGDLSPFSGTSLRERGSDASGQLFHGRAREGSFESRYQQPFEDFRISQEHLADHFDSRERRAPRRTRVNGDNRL

[6] = target: Disintegrin and metalloproteinase domain-containing protein 17 (Homo sapiens, UniProt P78536); test: ADAM17 protease inhibitors, dose response, counter-screen for ADAM10 exosite inhibitor project, biochemical, quenched FRET substrate (AID 743253)
Chain of Disintegrin and metalloproteinase domain-containing protein 17 (P78536 whole entry, the tested form may be a part): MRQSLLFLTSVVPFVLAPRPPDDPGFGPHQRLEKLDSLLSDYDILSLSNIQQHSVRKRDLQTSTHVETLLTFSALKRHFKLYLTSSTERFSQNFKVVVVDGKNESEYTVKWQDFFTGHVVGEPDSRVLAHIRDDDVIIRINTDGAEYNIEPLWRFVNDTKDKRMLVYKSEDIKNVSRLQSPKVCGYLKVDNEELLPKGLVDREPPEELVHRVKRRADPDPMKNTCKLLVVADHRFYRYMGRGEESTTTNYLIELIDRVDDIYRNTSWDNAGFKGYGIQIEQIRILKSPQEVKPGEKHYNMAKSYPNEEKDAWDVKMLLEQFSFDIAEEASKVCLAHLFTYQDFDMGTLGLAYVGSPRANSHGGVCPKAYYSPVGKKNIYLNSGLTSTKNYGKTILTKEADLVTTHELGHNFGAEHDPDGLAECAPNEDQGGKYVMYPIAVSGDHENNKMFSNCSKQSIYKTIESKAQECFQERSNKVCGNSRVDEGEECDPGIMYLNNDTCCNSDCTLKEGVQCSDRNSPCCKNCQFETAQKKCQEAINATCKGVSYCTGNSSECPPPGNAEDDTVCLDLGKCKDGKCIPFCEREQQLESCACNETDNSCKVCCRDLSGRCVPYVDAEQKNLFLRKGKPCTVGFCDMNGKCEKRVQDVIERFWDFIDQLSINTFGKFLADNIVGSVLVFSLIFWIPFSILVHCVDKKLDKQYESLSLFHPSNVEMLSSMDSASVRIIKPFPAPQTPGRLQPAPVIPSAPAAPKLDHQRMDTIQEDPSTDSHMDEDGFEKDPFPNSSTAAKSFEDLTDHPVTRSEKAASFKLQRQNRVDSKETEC

[7] = ADAM10 inhibitors, peptide cleavage, dose response, biochemical, QFRET (AID 743254);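 also: ADAM10 enzyme with the DM2 quenched FRET peptide as substrate; EDANS fluorescence gain as the protease cuts the substrate; inhibitor potency against ADAM10 proteolytic activity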
[8] = target: T1, Calpain-2 catalytic subunit (Sus scrofa, UniProt P43367); test: pig calpain II inhibitor potency, dose response, biochemical, fluorogenic peptide substrate (AID 1420); assay type: functional
T1 sequence (P43367 whole entry): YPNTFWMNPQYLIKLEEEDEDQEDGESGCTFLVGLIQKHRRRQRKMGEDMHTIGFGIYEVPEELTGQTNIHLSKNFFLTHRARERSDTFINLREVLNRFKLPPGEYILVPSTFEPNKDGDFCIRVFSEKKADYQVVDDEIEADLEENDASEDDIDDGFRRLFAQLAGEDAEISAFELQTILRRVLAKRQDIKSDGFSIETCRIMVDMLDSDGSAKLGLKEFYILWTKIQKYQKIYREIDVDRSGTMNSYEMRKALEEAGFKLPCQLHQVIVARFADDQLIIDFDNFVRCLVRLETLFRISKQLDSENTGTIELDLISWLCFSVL

[9] = target: T2, Trace amine-associated receptor 1 (Homo sapiens, UniProt Q96RJ0); test: Counterscreen for antagonists of the human trace amine associated receptor 1 (hTAAR1): Fluorescence-based cell-based high throughput dose response assay to identify TAAR1 Agonists.; assay type: functional
T2 sequence (Q96RJ0 whole entry): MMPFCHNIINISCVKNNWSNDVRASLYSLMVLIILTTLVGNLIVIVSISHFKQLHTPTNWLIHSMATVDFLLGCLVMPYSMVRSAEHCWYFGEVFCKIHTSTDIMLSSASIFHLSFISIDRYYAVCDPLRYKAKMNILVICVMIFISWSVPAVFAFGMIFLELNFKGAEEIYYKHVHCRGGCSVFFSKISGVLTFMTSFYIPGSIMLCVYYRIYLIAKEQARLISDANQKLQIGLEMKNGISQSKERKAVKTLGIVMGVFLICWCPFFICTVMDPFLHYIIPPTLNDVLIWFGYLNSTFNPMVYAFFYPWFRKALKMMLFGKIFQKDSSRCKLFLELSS

[10] = Counterscreen for […] of the human trace amine associated receptor 1 (TAAR1): Fluorescence-based cell-based high throughput dose response assay to identify nonselective Ga16 agonists.; assay type: functional
[11] = target: T2, Trace amine-associated receptor 1; test: Fluorescence-based cell-based high throughput dose response assay to identify antagonists of the human trace amine associated receptor 1 (TAAR1).; assay type: functional
[12] = Counterscreen for antagonists of the human trace amine associated receptor 1 (hTAAR1): Fluorescence-based cell-based high throughput dose response assay to identify nonselective Ga16 antagonists.; assay type: functional
[13] = cytotoxicity in OVCAR8 ovarian cancer cells, dose response, PAX8 project, cell-based, plate reader, dry powder samples (AID 743197); assay type: functional; details: OVCAR-8
[14] = NIH:OVCAR-3 ovarian cancer cell cytotoxicity, dose response, PAX8 inhibitor project, plate reader, dry powder samples (AID 743044); assay type: functional, cell-based
Paired box protein Pax-8 = Paired box protein Pax-8 (Homo sapiens, UniProt Q06710); test: inhibitors of PAX8-driven TPO luciferase reporter, dose response, RMG-I cells, cherry-pick (AID 687027); assay type: functional, cell-based;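 also: luciferase reporter driven by Pax8 target thyroperoxidase promoter measured by SteadyGlo luminescence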
Chain of Paired box protein Pax-8 (Q06710 whole entry): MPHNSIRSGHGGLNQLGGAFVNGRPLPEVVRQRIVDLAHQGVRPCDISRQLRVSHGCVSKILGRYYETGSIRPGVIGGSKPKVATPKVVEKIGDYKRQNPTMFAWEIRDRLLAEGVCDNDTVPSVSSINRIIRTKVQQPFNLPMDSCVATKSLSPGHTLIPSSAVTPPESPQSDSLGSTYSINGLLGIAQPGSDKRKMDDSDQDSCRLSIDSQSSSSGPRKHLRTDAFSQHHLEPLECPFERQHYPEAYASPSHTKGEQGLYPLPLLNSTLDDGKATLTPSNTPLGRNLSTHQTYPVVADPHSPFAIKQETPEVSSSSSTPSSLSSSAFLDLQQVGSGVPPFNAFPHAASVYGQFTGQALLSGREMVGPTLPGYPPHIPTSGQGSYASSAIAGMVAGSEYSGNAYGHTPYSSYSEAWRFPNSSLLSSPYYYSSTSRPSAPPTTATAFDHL

[15] = cytotoxicity in COV434 cells, dose response, cytotoxicity control for PAX8 inhibitor project, cell-based, plate reader, dry powder, SA7 (AID 743145); assay type: functional
[16] = cytotoxicity dependent on PAX8, dose response, cell-based, plate reader, dry powder (AID 743049); assay type: functional
[17] = cytotoxicity in OV-90 ovarian cancer cells, dose response, PAX8 inhibitor project, cell-based, plate reader, dry powder, SA8 (AID 743149); assay type: functional
[18] = PAX5 activity inhibitors, dose response, selectivity assay for PAX8 inhibitor project, cell-based, plate reader, dry powder samples (AID 743047); assay type: functional;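 also: HEK293 cells carrying a Pax5 driven CD19 promoter luciferase reporter; potency of inhibitors that lower reporter luminescence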
[19] = cytotoxicity in COV362 ovarian cancer cells, dose response, cytotoxicity control for PAX8 inhibitor project, cell-based, plate reader, dry powder, SA12 (AID 743144); assay type: functional
[20] = cytotoxicity in OVCAR4 cells, dose response, cytotoxicity control for PAX8 inhibitor project, cell-based, plate reader, dry powder, SA11 (AID 743150); assay type: functional; details: OVCAR-4
[21] = PAX2 cell-based inhibition, dose response, selectivity assay for PAX8 inhibitor project, plate reader, dry powder samples (AID 743048); assay type: functional;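 also: HEK293 cells carrying a WT1 promoter luciferase reporter driven by expressed Pax2; potency is for inhibition of Pax2 driven reporter signal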
[22] = target: Endoplasmic reticulum aminopeptidase 1 (Homo sapiens, UniProt Q9NZ08); test: ERAP1 aminopeptidase inhibitors, dose response, biochemical, cherry-pick, set 2, plate reader (AID 743314)
Chain of Endoplasmic reticulum aminopeptidase 1 (Q9NZ08 whole entry): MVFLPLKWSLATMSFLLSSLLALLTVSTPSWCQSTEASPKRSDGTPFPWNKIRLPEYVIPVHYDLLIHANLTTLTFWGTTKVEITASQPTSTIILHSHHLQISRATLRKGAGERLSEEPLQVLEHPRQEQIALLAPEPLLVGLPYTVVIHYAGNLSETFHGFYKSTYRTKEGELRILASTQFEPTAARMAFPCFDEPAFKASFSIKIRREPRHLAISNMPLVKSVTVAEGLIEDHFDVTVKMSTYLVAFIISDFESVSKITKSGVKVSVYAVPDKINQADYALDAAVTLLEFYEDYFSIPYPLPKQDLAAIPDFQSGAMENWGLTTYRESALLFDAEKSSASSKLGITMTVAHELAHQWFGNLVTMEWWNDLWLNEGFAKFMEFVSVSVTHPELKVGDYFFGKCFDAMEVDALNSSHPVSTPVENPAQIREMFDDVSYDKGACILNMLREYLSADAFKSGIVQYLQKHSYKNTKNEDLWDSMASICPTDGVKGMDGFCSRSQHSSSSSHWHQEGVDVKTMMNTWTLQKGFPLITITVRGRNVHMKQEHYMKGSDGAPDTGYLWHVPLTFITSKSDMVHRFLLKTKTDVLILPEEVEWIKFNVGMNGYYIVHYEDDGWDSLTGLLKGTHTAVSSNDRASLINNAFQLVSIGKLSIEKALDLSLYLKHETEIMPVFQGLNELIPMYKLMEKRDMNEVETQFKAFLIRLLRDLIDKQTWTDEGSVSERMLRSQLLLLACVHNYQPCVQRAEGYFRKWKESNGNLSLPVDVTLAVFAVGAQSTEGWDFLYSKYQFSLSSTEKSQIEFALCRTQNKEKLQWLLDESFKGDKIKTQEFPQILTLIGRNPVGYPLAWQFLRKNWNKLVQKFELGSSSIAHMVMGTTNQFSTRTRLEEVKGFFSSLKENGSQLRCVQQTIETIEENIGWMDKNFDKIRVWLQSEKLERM

[23] = Late stage assay provider results from the probe development effort to identify selective inhibitors of heat shock protein 90 (HSP90): Absorbance-based cell proliferation assay in MCF7 cells.; assay type: functional
[24] = Late stage assay provider results from the probe development effort to identify selective inhibitors of heat shock protein 90 (HSP90): Absorbance-based cell proliferation assay in SKBR3 cells.; assay type: functional; details: SK-BR-3
[25] = TRPM1 promoter luciferase reporter signal decrease, dose response, MITF inhibitor project, cell-based, SK-MEL-5, dry powder, set 8 (AID 624430); assay type: functional
[26] = MITF Orthogonal Assay: SK-MEL-5 CTG Assay Measured in Cell-Based System Using Plate Reader - 2084-02_Inhibitor_Dose_DryPowder_Activity_Set7.; assay type: functional
[27] = MITF: Counter assay: A375 proliferation Measured in Cell-Based System Using Plate Reader - 2084-03_Inhibitor_Dose_DryPowder_Activity_Set8.; assay type: functional; details: A-375
[28] = miR-122 activators in hepatoma reporter cells, dose response, cell-based, Huh7 psiCHECK-miR122, Renilla luciferase, cherry-picked (AID 651956); assay type: functional;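 also: huh7 hepatoma cells stably carrying a psiCHECK-2 miR-122 sensor plasmid; renilla luciferase signal reporting endogenous miR-122 activity after 48 h compound exposure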
[29] = HEK293T cytotoxicity, dose response, cytotoxicity control for miR-122 modulator project, cell-based, inhibitor set, cherry-pick, set 2 (AID 720697); assay type: functional
[30] = HEK293T cytotoxicity, dose response, cytotoxicity control for miR-122 modulator project, cell-based, activator set, cherry-pick (AID 720690); assay type: functional;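 also: HEK293T human cells scored for general mammalian cytotoxicity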
[31] = A2780 ovarian cancer cell cytotoxicity, dose response, cytotoxicity control, plate reader, dry powder samples (AID 743046); assay type: functional, cell-based
[32] = IGROV1 ovarian cancer cell cytotoxicity, dose response, PAX8 inhibitor project, plate reader, dry powder samples (AID 743043); assay type: functional, cell-based; details: IGROV-1
[33] = IOSE-T80 ovarian epithelial cell cytotoxicity, dose response, cytotoxicity control for PAX8 inhibitor project, plate reader, dry powder samples (AID 743045); assay type: functional, cell-based
[34] = growth suppression of beta-catenin-knockout colon cells, dose response, cell-based, HCT116, human colon tumor (AID 1045); assay type: functional;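 also: HCT116 colon tumor cells with beta catenin knocked out; cells exposed to compound for 60 hours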
[35] = cytotoxicity in HEK-293T cells, dose response, cytotoxicity control for BCR NF-kB inhibitor project, luminescence, B-cell screen hits (AID 489021); assay type: functional, cell-based;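 also: HEK-293T cells carrying an NF-kB luciferase reporter; cells exposed to compound for about 14 hours before viability readout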
[36] = growth suppression of PTEN-null colon cells, dose response, cell-based, HCT116 PTEN knockout (AID 1047); assay type: functional;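 also: HCT116 colon tumor cells with PTEN knocked out; cells exposed to compound for 60 hours before readout; potency for loss of cell viability measured by luminescence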
[37] = target: COUP transcription factor 2 (Homo sapiens, UniProt P24468); test: Luminescence-based cell-based high throughput dose response assay to identify inhibitors of COUP-TFII (NR2F2).; assay type: functional;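 also: HEK293 cells transiently cotransfected with COUP-TFII expression vector and reporter; luciferase reporter luminescence driven by COUP-TFII from the pX2-168 reporter plasmid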
Chain of COUP transcription factor 2 (P24468 whole entry): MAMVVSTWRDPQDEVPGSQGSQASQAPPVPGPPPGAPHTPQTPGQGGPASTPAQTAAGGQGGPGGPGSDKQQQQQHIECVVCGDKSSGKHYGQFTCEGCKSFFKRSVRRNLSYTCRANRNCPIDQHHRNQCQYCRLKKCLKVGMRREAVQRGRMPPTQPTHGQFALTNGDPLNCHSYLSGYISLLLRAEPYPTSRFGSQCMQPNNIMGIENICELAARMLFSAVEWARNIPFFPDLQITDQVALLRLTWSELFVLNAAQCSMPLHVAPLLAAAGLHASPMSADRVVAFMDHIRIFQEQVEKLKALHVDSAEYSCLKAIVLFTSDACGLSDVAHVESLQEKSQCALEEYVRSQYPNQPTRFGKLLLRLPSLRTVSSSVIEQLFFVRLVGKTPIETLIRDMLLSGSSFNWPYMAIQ

[38] = Late stage counterscreen for inhibitors of Trypanosoma brucei methionyl tRNA synthetase (MetRS): Luminescence-based cell-based high throughput dose response assay to identify compounds that are cytotoxic to Jurkat human T lymphocyte cells.; assay type: functional
[39] = Artemis endonuclease inhibitor potency, dose response, biochemical, fluorescence intensity (AID 720701); assay type: functional;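 also: Artemis endonuclease enzyme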
[40] = Luminescence Cell-Based Dose Response HTS to Identify Activators of Luciferase Translation or Activity in H4 […] Cells. [Related pubchem assays: 1829 (Project Summary), 1814 (Primary HTS)]; assay type: functional
[41] = target: T3, Heat shock factor protein 1 (Mus musculus, UniProt P38532); test: inhibition of MG132-induced HSE-luciferase signal, confirmation, cell-based, NIH3T3, luminescence, dose retest (AID 2382); assay type: functional;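 also: NIH3T3 fibroblasts with HSF1-driven luciferase reporter stressed by proteasome inhibitor MG132; luminescence from HSF1-driven luciferase expression after 8 hours of MG132 stress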
T3 sequence (P38532 whole entry): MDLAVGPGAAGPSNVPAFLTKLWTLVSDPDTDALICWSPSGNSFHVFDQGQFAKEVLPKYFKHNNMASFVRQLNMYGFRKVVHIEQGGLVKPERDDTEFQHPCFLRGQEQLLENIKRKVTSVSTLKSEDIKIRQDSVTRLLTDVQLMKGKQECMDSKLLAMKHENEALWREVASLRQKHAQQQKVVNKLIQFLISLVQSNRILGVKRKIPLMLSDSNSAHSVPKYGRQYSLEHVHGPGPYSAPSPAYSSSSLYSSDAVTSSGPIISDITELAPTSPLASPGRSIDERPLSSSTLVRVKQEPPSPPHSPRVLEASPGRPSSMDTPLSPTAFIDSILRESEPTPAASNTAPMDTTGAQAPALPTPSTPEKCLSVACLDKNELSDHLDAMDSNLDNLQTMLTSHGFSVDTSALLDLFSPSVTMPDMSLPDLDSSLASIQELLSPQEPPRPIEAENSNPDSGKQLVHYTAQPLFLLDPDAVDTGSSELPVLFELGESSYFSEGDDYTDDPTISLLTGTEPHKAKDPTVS

cells = details: HEK293
[42] = THP-1 cell cytotoxicity, cytotoxicity control, set 6 (AID 602433); assay type: functional; details: Mycobacterium tuberculosis
[43] = Vero cell cytotoxicity, cytotoxicity control for M. tuberculosis inhibitor project, purified and synthesized samples, set 8 (AID 602431); assay type: functional; details: Mycobacterium tuberculosis
[44] = HeLa cell cytotoxicity, dose response, cytotoxicity control, 24 h, plate reader, dry powder (AID 686928); assay type: functional, cell-based

For `CC(C)N1C[C@H](C)[C@@H](CN(C)Cc2ccccc2)Oc2c(NC(=O)c3ccncc3)cccc2C1=O`, the AC50 [1] was 0.00035 µM (active), the IC50 [2] was 0.0026 µM (active) and the AC50 [3] was 0.00035 µM (active).

For `CCn1c(=S)sc2c(=O)n(CC(=O)Nc3cccc(Cl)c3)c(C)nc21`, the IC50 [4] was > 122 µM (inactive) and the IC50 [5] was > 122 µM (inactive).

For `O=C(COC(=O)CCCSc1nc2ccccc2[nH]1)Nc1ccc(Oc2ccccc2)cc1`, the IC50 [6] was > 69.5 µM (inactive), the IC50 [7] was 8.39 µM (active) and the IC50 [8] was 7.16 µM (not active).

For `CSC(=S)N/N=C/c1c[nH]c2ccccc12`, the EC50 [9] was > 29.9 µM (inactive), the EC50 [10] was > 29.9 µM (inactive) and the IC50 [11] was 2.6 µM (active). The IC50 [12] was 28.1 µM (inactive).

In the case of `N#C[C@H]1[C@@H](c2ccc(C#Cc3ccc(F)cc3)cc2)[C@H](CO)N1C(=O)C1CCCC1`, the AC50 [13] is reported as > 70 µM (inactive), the AC50 [14] is reported as 34.5 µM (active) and the AC50 (Paired box protein Pax-8) is reported as 13.4 µM (active). For the same compound, the AC50 [15] was 26.2 µM (active), the AC50 [16] was 18.6 µM (active) and the AC50 [17] was 26.5 µM (active). For the same compound, the AC50 [18] was 8.42 µM (active), the AC50 [19] was 33.3 µM (active) and the AC50 [20] was > 70 µM (inactive). For the same compound, the AC50 [21] was 9.19 µM (active).

For `Cc1cc(N(C)Cc2ccccc2)nc2cc(O)ccc12`, the AC50 [22] was 11.3 µM (active).

For `O=C(O)c1cccc(COc2ccc3cc(Br)c(=O)oc3c2)c1`, the IC50 [23] was > 100 µM (inactive) and the IC50 [24] was > 100 µM (inactive).

For `O=C1C=C(Nc2cccc(Cl)c2)C(=O)c2ccccc21`, the AC50 [25] was 23.9 µM (active), the AC50 [26] was 0.683 µM (active) and the AC50 [27] was 22.3 µM (active).

For `CCOC(=O)N1CCC(NC(=O)c2ccc3c(c2)sc2nc(-c4ccccc4)cn23)CC1`, the AC50 [28] was 1.26 µM (active), the AC50 [29] was 13.6 µM (active) and the AC50 [30] was 12.3 µM (active).

For `Cc1ccc(S(=O)(=O)Nc2ccc3c(c2)C(=O)N([C@H](C)CO)C[C@H](C)[C@@H](CN(C)S(=O)(=O)c2ccc(F)cc2)OCCCC[C@H](C)O3)cc1`, the AC50 [13] was 11 µM (active), the AC50 [14] was 9 µM (active) and the AC50 (Paired box protein Pax-8) was 2.11 µM (active). The AC50 [31] was 7.45 µM (active), the AC50 [32] was 14.8 µM (active) and the AC50 [33] was 6.87 µM (active).

For `CN(CC1CCCO1)S(=O)(=O)c1ccc(C(=O)Nc2nc3cc4c(cc3s2)OCO4)cc1` (centres undefined), the EC50 [34] was 6.11 µM (active), the IC50 [35] was > 80 µM (inactive) and the EC50 [36] was 9.25 µM (active). The IC50 [37] was 2.68 µM (active).

With `O=C(CN1CCSC1=NCc1ccccc1)c1ccc(Cl)c(Cl)c1` the IC50 [38] was 83.2 µM (inactive).

With `Nc1ccc2[nH]c(-c3ccccn3)nc2c1` the IC50 [39] was 16.7 µM (active) and the EC50 [40] was 24.6 µM (active).

In the case of `Cc1cc(-c2ccccc2)c2ccc(NC(=O)C(C)(C)C)nc2n1`, the EC50 [41] is reported as > 195 µM (not active) and the AC50 (cells) is reported as > 52 µM (inactive).

In the case of `O=C(CSc1nc2ccccc2c(=O)[nH]1)NC1CCCCC1`, the CC50 [42] is reported as > 100 µM (inconclusive), the CC50 [43] is reported as > 100 µM (inconclusive) and the AC50 [44] is reported as > 160 µM (inactive).
